Test system: Common fruit fly, Drosophila melanogaster
Experiment: Diet surface treatment bioassay against common fruit fly, population after one generation
Type: in vivo
Settings: single peptide 0.1 mg/ml; after 14 days (one generation)
Protocol: A trap made up from a ripened banana was kept in an open, shady, and damp place to capture the flies. Captured flies were anaesthetized using about 5% Triethylamine (TAE) treatment for about 1 minute. Drosophila melanogaster files were identified, separated, and transferred to a flask containing diet made up of Corn flour: about […], Sugar: about 51 μm, Agar agar: about […], Yeast: about 17 μm, Methyl Paraben: about 4 μm, Propionic acid: about 4 ml, Distilled Water: about 1200 ml. Freshly emerged flies were transferred to separate bottle to synchronize the population. The population was maintained in a separate room at a temperature of about 25±2° C., RH of about 60-65% and was subjected to a 16:8 (light: dark) h photoperiod.
The insecticide stock solutions were prepared by dilution with phosphate buffered saline (PBS, pH 7.0) to achieve desire doses of test. Semi synthetic artificial diet surface treatment method was used to assess the efficacy of IPPs against […]. Diet was prepared as per the composition given above. 2 ml hot liquid diet poured in 25 ml glass vials (5 cm h and 1.5 cm diameter) and allowed to cool and solid. […] After 14 days precisely after one generation, insect stages, egg, larvae, pupa and adults were counted.

Question: `CC[C@H](C)[C@H](NC(=O)[C@H](CCC(N)=O)NC(=O)[C@H](CCC(N)=O)NC(=O)[C@H](CCC(=O)O)NC(=O)[C@H](CCCCN)NC(=O)[C@H](CCC(N)=O)NC(=O)[C@H](CCC(=O)O)NC(=O)[C@H](C)NC(=O)[C@@H](N)CCSC)C(=O)N[C@@H](CC(C)C)C(=O)N[C@@H](CCCNC(=N)N)C(=O)N[C@@H](CC(C)C)C(=O)N[C@@H](CCCNC(=N)N)C(=O)N[C@@H](CCC(=O)O)C(=O)N[C@@H](CO)C(=O)N[C@@H](Cc1c[nH]cn1)C(=O)N[C@@H](Cc1c[nH]cn1)C(=O)N[C@@H](Cc1c[nH]cn1)C(=O)N[C@@H](Cc1c[nH]cn1)C(=O)N[C@@H](Cc1c[nH]cn1)C(=O)N[C@@H](Cc1c[nH]cn1)C(=O)O` [Seq. ID No. 3, MAEQKEQQILRLRES] was tested. Which “Observed Response (Percent reduction of population over UTC) SEQ ID No. X / SEQ ID No. Y” value did it give?
Answer: Its value is 37.79%.

From patent US20260209275A1, “PEPTIDE(S), COMPOSITION(S) AND METHOD(S) HAVING BROAD SPECTRUM ACTIVITY AGAINST CROP INSECTS” (TELLURIS BIOTECH INDIA PRIVATE LIMITED, priority 2022, published 2026)
